Converted amounts (≈) assume the structure as drawn. Read-outs that look alike come from different tables or passages of the source.
Columns and labels:
[1] = Cytotoxicity in Raw 264.7 murine macrophage cell cultures (resazurin, 72 h); format: cell-based; settings: mouse, Raw 264.7 murine macrophages, 72 h at 37 °C, 6.2–200 μg/mL, triplicate
Method: The Raw 264.7 murine macrophage cell line was purchased from the American-Type Culture Collection (ATCC-TIB71). The cells were maintained in DMEM-HG medium supplemented with 10% fetal bovine serum, 100 U/mL of penicillin and 100 μg/mL of streptomycin, and sodium bicarbonate (2.2 g/L) in humidified atmosphere at 37 °C with 5% CO2. Samples were prepared as described above and added (in 100 μL DMSO) at different concentrations (6.2–200 μg/mL). Medium blank, control drugs and cell growth controls were included to evaluate cell viability. The plates were incubated for 72 h at 37 °C with 5% CO2. After incubation for the indicated time, the cells were washed, after which 10 μL of Resazurin reagent (2.0 mM) was added. They were further incubated at 37 °C for 3 h in a humidified incubator. The IC50 values were assessed using a fluorometric reader (540 nm excitation, 590 nm emission) and Gen5 software. All assays were performed in triplicate.

[2] = test system: L. braziliensis promastigotes; experiment: In vitro leishmanicidal activity against promastigotes (optical density, 72 h); format: cell-based; settings: Leishmania braziliensis, read-out: Leishmanicidal activity L.b, IC50
Method: (§1) Leishmanicidal activity was assayed according to Williams, with some modification. Promastigotes of Leishmania: L. amazonensis, Clone 1, NHOM-BR-76-LTB-012 (Lma, donated by the Paul Sabatier Université, France) and L. braziliensis M2904 C192 RJA (M2904, donated by Dr. Jorge Arévalo from Universidad Peruana Cayetano Heredia, Peru). The strains were cultured in Schneider’s insect medium (pH 6.2), supplemented with 10% FBS and incubated in 96-microwell plates at 26 °C. Briefly, promastigotes in logarithmic phase of growth, at concentration of 106 parasites/mL, were exposed to samples dissolved in DMSO (1%) at different concentrations (3.1–100 μg/mL). Miltefosine (3.1–100 μg/mL, IDPS, France) was used as control drug. The microwell plates were incubated for 72 h at 26 °C, the optical density of each well was measured and the IC50 values calculated. All assays were performed in triplicate.

[3] = test system: Leishmania amazonensis promastigotes; experiment: as above; format: cell-based; settings: read-out: Leishmanicidal activity L.a., IC50
Method: as §1

Row | SMILES | IC50 at 72 h [1] [µg/mL] | melting point [°C] | IC50 ([2]; 72 h) [µg/mL] | IC50 ([3]; 72 h) [µg/mL] | IC50 at 72 h ([1]; Raw 264.7 macrophage cells) [µg/mL] | IC50 ([2]; L. braziliensis M2904 C192 RJA promastigotes, 72 h at 26 °C, 3.1–100 μg/mL, triplicate) [µg/mL] | IC50 ([3]; L. amazonensis Clone 1 NHOM-BR-76-LTB-012 promastigotes, 72 h at 26 °C, 3.1–100 μg/mL, triplicate) [µg/mL]
1 | COC(=O)CC1C(C)(C)OC(=O)C=C2OC3(C)C45C(=O)CC(c6ccoc6)C4(C)C(OC(C)=O)C(O)C35C21C (stereo not shown) [Compound 1, Trichilianone A] | 64 ± 23 (≈ 118 µM) | 181 | > 100 | > 100 | – | – | –
2 | COC(=O)CC1C(C)(C)OC(=O)CC2OC3(C)C45C(=O)CC(c6ccoc6)C4(C)C(OC(C)=O)C(O)C35C21C (stereo not shown) [Compound 2, Trichilianone B] | – | 145 | > 100 | > 100 | 75 ± 18 (≈ 138 µM) | – | –
3 | COC(=O)CC1C(C)(C)OC(=O)CC2OC3(C)C45C(=O)CC(c6ccoc6)C4(C)C(OC(C)=O)C(OC(=O)C(C)C)C35C21C (stereo not shown) [Compound 3, Trichilianone C] | – | 151 | > 100 | > 100 | 70 ± 27 (≈ 114 µM) | – | –
4 | COC(=O)CC1C(C)(C)OC(=O)C=C2OC3(C)C45C(=O)CC(C6=CCOC6=O)C4(C)C(OC(C)=O)C(O)C35C21C (stereo not shown) [Compound 4, Trichilianone D] | 76 ± 23 (≈ 136 µM) | 175 | > 100 | > 100 | – | – | –
5 | CCCCCCCCCCCCCCCCOP(=O)([O-])OCC[N+](C)(C)C [Miltefosine, reference compound] | – | – | – | – | 21 ± 2 (≈ 51.5 µM) | 4.1 ± 0.5 (≈ 10.1 µM) | 5 ± 0.2 (≈ 12.3 µM)

From PMC7919047, “Trichilianones A-D, Novel Cyclopropane-Type Limonoids from Trichilia adolfi” (Molecules, 2021)
